# From PubChem BioAssay (NCI)
#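 The compound was tested at five concentrations on cells cultured in 96-well plates, with a 48-hour exposure period. TGI is the concentration that stops growth completely.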
# Assays:
# Experiment in all cases: NCI tumour cell line growth inhibition, 48 h
# [1] = system: 786-0 renal
# [2] = system: A498 renal
# [3] = system: A549 NSCLC
# [4] = system: ACHN renal
# [5] = system: CAKI-1 renal
# [6] = system: CCRF-CEM leukemia
# [7] = system: COLO 205 colon
# [8] = system: DU-145 prostate
# [9] = system: EKVX NSCLC
# [10] = system: HCC-2998 colon
# [11] = system: HCT-116 colon
# [12] = system: HCT-15 colon
# [13] = system: HL-60(TB) leukemia
# [14] = system: HOP-62 NSCLC
# [15] = system: HOP-92 NSCLC
# [16] = system: HS 578T breast
# [17] = system: HT29 colon
# [18] = system: IGROV1 ovarian
# [19] = system: K-562 leukemia
# [20] = system: KM12 colon
# [21] = system: LOX IMVI melanoma
# [22] = system: MALME-3M melanoma
# [23] = system: MDA-MB-231 breast
# [24] = system: MDA-MB-435
# [25] = system: MDA-N
# [26] = system: MOLT-4 leukemia
# [27] = system: NCI-H226 lung
# [28] = system: NCI-H23 lung
# [29] = system: NCI-H460 lung
# [30] = system: NCI-H522 lung
# [31] = system: NCI/ADR-RES ovarian
# [32] = system: OVCAR-4 ovarian
# [33] = system: OVCAR-5 ovarian
# [34] = system: OVCAR-8 ovarian
# [35] = system: PC-3 prostate
# [36] = system: RPMI-8226 leukemia
# [37] = system: RXF 393 renal
# [38] = system: SF-268 CNS
# [39] = system: SF-295 CNS
# [40] = system: SF-539 CNS
# [41] = system: SK-MEL-2 melanoma
# [42] = system: SK-MEL-28 melanoma
# [43] = system: SK-MEL-5 melanoma
# [44] = system: SK-OV-3 ovarian
# [45] = system: SN12C renal
# [46] = system: SNB-19 CNS
# [47] = system: SNB-75 CNS
# [48] = system: SR leukemia
# [49] = system: SW-620 colon
# [50] = system: T-47D breast
# [51] = system: TK-10 renal
# [52] = system: U251 CNS
# [53] = system: UACC-257 melanoma
# [54] = system: UACC-62 melanoma
# [55] = system: UO-31 renal
compound,measurement,setting,value
S=C1C(=Nc2ccccc2)N(C2CCCCC2)C(=NC2CCCCC2)N1c1ccccc1,TGI,[1],> 100 µM
same,TGI,[2],> 100 µM
same,TGI,[3],> 100 µM
same,TGI,[4],> 100 µM
same,TGI,[5],> 100 µM
same,TGI,[6],> 100 µM
same,TGI,[7],> 100 µM
same,TGI,[8],> 100 µM
same,TGI,[9],> 100 µM
same,TGI,[10],> 100 µM
same,TGI,[11],> 100 µM
same,TGI,[12],> 100 µM
same,TGI,[13],> 100 µM
same,TGI,[14],> 100 µM
same,TGI,[15],> 100 µM
same,TGI,[16],> 100 µM
same,TGI,[17],> 100 µM
same,TGI,[18],> 100 µM
same,TGI,[19],> 100 µM
same,TGI,[20],> 100 µM
same,TGI,[21],> 100 µM
same,TGI,[22],> 100 µM
same,TGI,[23],> 100 µM
same,TGI,[24],> 100 µM
same,TGI,[25],> 100 µM
same,TGI,[26],> 100 µM
same,TGI,[27],> 100 µM
same,TGI,[28],> 100 µM
same,TGI,[29],> 100 µM
same,TGI,[30],71.8 µM
same,TGI,[31],> 100 µM
same,TGI,[32],> 100 µM
same,TGI,[33],> 100 µM
same,TGI,[34],> 100 µM
same,TGI,[35],> 100 µM
same,TGI,[36],> 100 µM
same,TGI,[37],> 100 µM
same,TGI,[38],> 100 µM
same,TGI,[39],> 100 µM
same,TGI,[40],> 100 µM
same,TGI,[41],> 100 µM
same,TGI,[42],> 100 µM
same,TGI,[43],> 100 µM
same,TGI,[44],> 100 µM
same,TGI,[45],> 100 µM
same,TGI,[46],> 100 µM
same,TGI,[47],> 100 µM
same,TGI,[48],> 100 µM
same,TGI,[49],> 100 µM
same,TGI,[50],> 100 µM
same,TGI,[51],> 100 µM
same,TGI,[52],> 100 µM
same,TGI,[53],> 100 µM
same,TGI,[54],> 100 µM
same,TGI,[55],> 100 µM
